Laboratory results: patent US20020114822A1, “Attractants for yellow jackets” (priority 2000, published 2002)

System: yellow jackets indigenous to the west coast (V. pensylvanica)
Test: Trials B: trap catch on the west coast, preferred formulation against heptyl butyrate formulations
Assay type: in vivo
Settings: average of two trials of each formulation
Excerpt: In the Examples and reported test results that follow, traps were usually hung in trees approximately four to six feet above the ground. A number of traps were used in each area where tests were made and the traps were spaced anywhere from fifteen to fifty feet apart. The traps used were commercially available traps generally of the top opening lid variety. Holes were made in the lids which were large enough to allow a yellow jacket to crawl inside the trap but small enough to confuse the yellow jackets in finding their way out. A trap of this kind is commercially available from Woodstream, Inc. sold under its trade name Yellow Jacket Trap®. The “vinegar” used in the examples was a vinegar as defined by FDA being a 5% acetic acid solution derived from apples. The “preferred formulation” used in the below reported trials was comprised of 58% apple juice concentrate; 36% vinegar; 5% poultry liver; and 1% dish detergent. Test were conducted on the west coast to compare the effectiveness of the preferred formulation of the invention with commercial formulations containing heptyl butyrate. Two trials of each formulation were made and the numbers indicate the average number of yellow jackets caught in the trials. […]

## CCCCCCCOC(=O)CCC [Heptyl Butyrate]
  average number of yellow jackets caught: 64
